Measured values: ChEMBL document CHEMBL1649204, “Evaluation of analogs of reutericyclin as prospective candidates for treatment of staphylococcal skin infections” (Antimicrob Agents Chemother, 2009)
Values after ≈ are worked out from the molar mass of the structure shown. Active and inactive are the calls of the source. The rule behind the calls is not given here.

What was measured:
[1] = Cytotoxicity against human CCD-32Sk cells after 48 hrs by MTT assay; type: cell-based
Staphylococcus aureus [2] = assay: Antimicrobial activity against methicillin-susceptible Staphylococcus aureus ATCC 29213 by microdilution method; type: functional
Staphylococcus aureus [3] = assay: Antimicrobial activity against methicillin-resistant Staphylococcus aureus by microdilution method; type: functional
Staphylococcus aureus [4] = assay: Antimicrobial activity against methicillin-susceptible Staphylococcus aureus ATCC 29213 grown as biofilms by microdilution method; type: functional
Staphylococcus aureus [5] = assay: Antimicrobial activity against mupirocin- and methicillin-resistant Staphylococcus aureus by microdilution method; type: functional
[6] = Therapeutic index, ratio of IC50 for human CCD-32Sk cells to MIC for Staphylococcus aureus 8235; type: cell-based; conditions: read-out: TI
[7] = tested on: Staphylococcus epidermidis; assay: Antimicrobial activity against Staphylococcus epidermidis RP62A by microdilution method; type: functional
Staphylococcus aureus [8] = assay: Antimicrobial activity against methicillin-resistant Staphylococcus aureus ATCC 33591 by microdilution method; type: functional
Staphylococcus aureus [9] = assay: Antimicrobial activity against Staphylococcus aureus 8235 by microdilution method; type: functional
Staphylococcus aureus [10] = assay: Antimicrobial activity against Staphylococcus aureus ATCC 29213 infected BALB/c mouse at 2 % administered topically 4 hrs post infection twice a day for 5 days; type: functional, organism-based
Staphylococcus aureus [11] = assay: Antimicrobial activity against Staphylococcus aureus isolate 8235 at >200 ug/ml by microdilution method in presence of 50 % human serum; type: functional, organism-based
Staphylococcus aureus [12] = assay: Antimicrobial activity against methicillin-susceptible Staphylococcus aureus by microdilution method; type: functional
[13] = tested on: Staphylococcus epidermidis; assay: Antimicrobial activity against Staphylococcus epidermidis RP62A grown as biofilms by microdilution method; type: functional
Streptococcus pyogenes = assay: Antimicrobial activity against Streptococcus pyogenes by microdilution method; type: functional
Staphylococcus aureus [14] = assay: Bacteriostatic activity against Staphylococcus aureus isolate 8235 assessed as log reduction in bacterial count at 32 times MIC after 24 hrs by microdilution method; type: functional
Staphylococcus aureus [15] = assay: Antimicrobial activity against methicillin-resistant Staphylococcus aureus ATCC 33591 grown as biofilms by microdilution method; type: functional
Staphylococcus aureus [16] = assay: Antimicrobial activity against Staphylococcus aureus 8235 selected after 4 times MIC pre-incubated for 1 hr by microdilution method; type: functional
Staphylococcus aureus [17] = assay: Antimicrobial activity against Staphylococcus aureus ATCC 29213 infected BALB/c mouse at 10 % administered topically 4 hrs post infection twice a day for 5 days; type: functional, organism-based
[18] = Homo sapiens, CCD-32Sk, 48 h, read-out: IC50

SMILES	IC50 [1, 18] [µg/mL]	MIC (Staphylococcus aureus [2]) [µg/mL]	MIC50 (Staphylococcus aureus [3]) [µg/mL]	MIC90 (Staphylococcus aureus [3]) [µg/mL]	MBEC (Staphylococcus aureus [4])	MBIC (Staphylococcus aureus [4]) [µg/mL]	MIC50 (Staphylococcus aureus [5]) [µg/mL]	MIC90 (Staphylococcus aureus [5]) [µg/mL]	selectivity ratio [6]	MIC [7] [µg/mL]	MIC (Staphylococcus aureus [8]) [µg/mL]	MIC (Staphylococcus aureus [9])	Activity (Staphylococcus aureus [11])	MIC50 (Staphylococcus aureus [12]) [µg/mL]	MIC90 (Staphylococcus aureus [12]) [µg/mL]	MBEC [13] [µg/mL]	MBIC [13] [µg/mL]	MIC50 (Streptococcus pyogenes) [µg/mL]	MIC90 (Streptococcus pyogenes) [µg/mL]	FC (Staphylococcus aureus [14])	further results
C/C(=C\C(=O)OCCCCCCCCC(=O)O)C[C@@H]1OC[C@H](C[C@@H]2O[C@H]2[C@@H](C)[C@H](C)O)[C@@H](O)[C@H]1O [MUPIROCIN]	> 20000	0.1 (≈ 0.2 µM)	0.8 (≈ 1.6 µM)	3.12 (≈ 6.23 µM)	>400 µg/mL	<0.2	0.8 (≈ 1.6 µM)	0.8 (≈ 1.6 µM)	> 1600	0.12 (≈ 0.24 µM)	0.06 (≈ 0.12 µM)	12.5 µg/mL (≈ 25 µM)	inactive	0.8 (≈ 1.6 µM)	0.8 (≈ 1.6 µM)	>400	<0.2	0.4 (≈ 0.799 µM)	0.4 (≈ 0.799 µM)		Activity (Staphylococcus aureus [10]): Active
CCCCCCCCCCN1C(=O)/C(=C(/C)O)C(=O)[C@@H]1CC(C)C	308 (≈ 914 µM)	0.8 (≈ 2.37 µM)	0.8 (≈ 2.37 µM)	1.6 (≈ 4.74 µM)	50 µg/mL	3.12	0.8 (≈ 2.37 µM)	1.6 (≈ 4.74 µM)	12.3	0.4 (≈ 1.19 µM)	0.8 (≈ 2.37 µM)	25 µg/mL (≈ 74.1 µM)	inactive	0.4 (≈ 1.19 µM)	0.8 (≈ 2.37 µM)	50	0.4	0.2 (≈ 0.593 µM)	0.8 (≈ 2.37 µM)	2.6	MBEC (Staphylococcus aureus [15]): 6.25 µg/mL; MBIC (Staphylococcus aureus [15]): 0.8 µg/mL; MIC (Staphylococcus aureus [12]): 0.4 µg/mL (≈ 1.19 µM); MIC (Staphylococcus aureus [16]): 0.8 µg/mL (≈ 2.37 µM); Activity (Staphylococcus aureus [17]): Active
CO[C@H]1/C=C/O[C@@]2(C)Oc3c(C)c(O)c4c(O)c(c(/C=N/N5CCN(C)CC5)c(O)c4c3C2=O)NC(=O)/C(C)=C\C=C\[C@H](C)[C@H](O)[C@@H](C)[C@@H](O)[C@@H](C)[C@H](OC(C)=O)[C@@H]1C [RIFAMPIN]		0.006 (≈ 0.00729 µM)			25 µg/mL	<0.2				0.012 (≈ 0.0146 µM)	0.012 (≈ 0.0146 µM)					50	<0.2				MBEC (Staphylococcus aureus [15]): 6.25 µg/mL
C/C(O)=C1\C(=O)[C@H](CC(C)C)N(Cc2ccc(-c3ccccc3)cc2)C1=O	529 (≈ 1460 µM)	0.8 (≈ 2.2 µM)	1.6 (≈ 4.4 µM)	1.6 (≈ 4.4 µM)	100 µg/mL	3.12	1.6 (≈ 4.4 µM)	1.6 (≈ 4.4 µM)	21.2	0.8 (≈ 2.2 µM)	0.8 (≈ 2.2 µM)	25 µg/mL (≈ 68.8 µM)	inactive	0.8 (≈ 2.2 µM)	1.6 (≈ 4.4 µM)	200	1.6	0.2 (≈ 0.55 µM)	0.8 (≈ 2.2 µM)	2.6	MBIC (Staphylococcus aureus [15]): 0.8 µg/mL; MIC (Staphylococcus aureus [12]): 0.8 µg/mL (≈ 2.2 µM); MIC (Staphylococcus aureus [16]): 0.8 µg/mL (≈ 2.2 µM)
C/C(O)=C1\C(=O)[C@H](CC(C)C)N(CCC(C)C/C=C/C(C)C)C1=O (some centres not stated)	256 (≈ 763 µM)	0.8 (≈ 2.38 µM)	0.8 (≈ 2.38 µM)	1.6 (≈ 4.77 µM)	50 µg/mL	3.12	0.8 (≈ 2.38 µM)	1.6 (≈ 4.77 µM)	10.2	0.8 (≈ 2.38 µM)	0.8 (≈ 2.38 µM)	25 µg/mL (≈ 74.5 µM)	inactive	0.8 (≈ 2.38 µM)	1.6 (≈ 4.77 µM)	200	0.4	0.4 (≈ 1.19 µM)	0.8 (≈ 2.38 µM)	2.6	MIC (Staphylococcus aureus [5]): 0.8 µg/mL (≈ 2.38 µM); MBIC (Staphylococcus aureus [15]): 0.4 µg/mL; MIC (Staphylococcus aureus [16]): 0.8 µg/mL (≈ 2.38 µM)
C=C(NC(=O)[C@@H](NC(=O)[C@H](Cc1cnc[nH]1)NC(=O)[C@@H](NC(=O)[C@H](CO)NC(=O)[C@@H]1CS[C@@H](C)[C@H]2NC(=O)C(=C)NC(=O)[C@H](NC(=O)[C@H](CCCCN)NC(=O)[C@H](CCSC)NC(=O)[C@H](CC(N)=O)NC(=O)[C@@H]3CS[C@@H](C)[C@@H](NC(=O)[C@H](CCCNN)NC(=O)[C@@H]4CS[C@@H](C)[C@@H](NC(=O)[C@@H]5CSC[C@@H](NC(=O)/C(=C\C)NC(=O)[C@@H](N)[C@@H](C)CC)C(=O)N[C@@H]([C@@H](C)CC)C(=O)NC(=C)C(=O)N[C@@H]([C@@H](C)CC)C(=O)N5)C(=O)N5CCC[C@H]5C(=O)NCC(=O)N4)C(=O)NCC(=O)N[C@@H](C)C(=O)N[C@@H]([C@@H](C)CC)C(=O)N[C@@H](CCSC)C(=O)NCC(=O)N3)[C@H](C)SC[C@H](NC2=O)C(=O)N[C@H](Cc2cnc[nH]2)C(=O)N1)[C@@H](C)CC)C(C)C)C(=O)N[C@@H](CCCCN)C(=O)O [NISIN]												inactive								2.6	IC50 ([1]; ccd-32sk): Not Active
CN[C@H](CC(C)C)C(=O)N[C@H]1C(=O)N[C@@H](CC(N)=O)C(=O)N[C@H]2C(=O)N[C@H]3C(=O)N[C@H](C(=O)N[C@H](C(=O)O)c4cc(O)cc(O)c4-c4cc3ccc4O)[C@H](O)c3ccc(c(Cl)c3)Oc3cc2cc(c3O[C@@H]2O[C@H](CO)[C@@H](O)[C@H](O)[C@H]2O[C@H]2C[C@](C)(N)[C@H](O)[C@H](C)O2)Oc2ccc(cc2Cl)[C@H]1O [VANCOMYCIN]	> 20000	0.8 (≈ 0.552 µM)	0.2 (≈ 0.138 µM)	0.4 (≈ 0.276 µM)	>400 µg/mL	3.12	> 200	> 200	> 25000	1.6 (≈ 1.1 µM)	1.6 (≈ 1.1 µM)	0.8 µg/mL (≈ 0.552 µM)		0.12 (≈ 0.0828 µM)	0.2 (≈ 0.138 µM)	>400	12.5	0.024 (≈ 0.0166 µM)	0.024 (≈ 0.0166 µM)		MBEC (Staphylococcus aureus [15]): >400 µg/mL; MBIC (Staphylococcus aureus [15]): 1.6 µg/mL; MIC (Staphylococcus aureus [12]): 0.05 µg/mL (≈ 0.0345 µM)
C/C(O)=C1\C(=O)[C@H](CC(C)C)N(CC2=CCC3CC2C3(C)C)C1=O (some centres not stated)	377 (≈ 1140 µM)	1.6 (≈ 4.83 µM)	3.12 (≈ 9.41 µM)	3.12 (≈ 9.41 µM)	>=400 ug ml-1	6.2	3.12 (≈ 9.41 µM)	3.12 (≈ 9.41 µM)	15.1	3.12 (≈ 9.41 µM)	1.6 (≈ 4.83 µM)	25 µg/mL (≈ 75.4 µM)	inactive	1.6 (≈ 4.83 µM)	3.12 (≈ 9.41 µM)	>400	1.6	0.4 (≈ 1.21 µM)	1.6 (≈ 4.83 µM)	2.6	MIC (Staphylococcus aureus [12]): 1.6 µg/mL (≈ 4.83 µM); MIC (Staphylococcus aureus [16]): 1.6 µg/mL (≈ 4.83 µM); Activity (Staphylococcus aureus [17]): Active
CC1(C)S[C@@H]2[C@H](NC(=O)[C@H](N)c3ccc(O)cc3)C(=O)N2[C@H]1C(=O)O [AMOXICILLIN]												inactive								2.6	IC50 ([1]; ccd-32sk): Not Active; MIC (Staphylococcus aureus [16]): 12.5 µg/mL (≈ 34.2 µM)
CCCCCCCCCCN1C(=O)/C(=C(/C)O)C(=O)[C@@H]1C(C)C	356 (≈ 1100 µM)	0.8 (≈ 2.47 µM)	0.8 (≈ 2.47 µM)	1.6 (≈ 4.95 µM)	25 µg/mL	1.6	1.6 (≈ 4.95 µM)	3.12 (≈ 9.65 µM)	14.4	0.8 (≈ 2.47 µM)	0.8 (≈ 2.47 µM)	25 µg/mL (≈ 77.3 µM)	inactive	0.8 (≈ 2.47 µM)	0.8 (≈ 2.47 µM)	25	0.8	0.2 (≈ 0.618 µM)	0.8 (≈ 2.47 µM)	2.6	MBIC (Staphylococcus aureus [15]): 0.8 µg/mL; MIC (Staphylococcus aureus [16]): 0.8 µg/mL (≈ 2.47 µM)
